“Also recorded” adds a separate entry of the source.

The record followed here is patent US9192617B2, “Pharmaceutical composition, methods for treating and uses thereof” (Boehringer Ingelheim International GmbH, priority 2012, dated 2015).

What all share (assay type): in vivo, Female Wistar rats
Assay [1] is described as follows: Oral glucose (2 g/kg) tolerance test on Day 30 in DIO rats. Particulars: for glucose tolerance (glucose AUC): OGTT 2 g/kg after 30 days of treatment, vs vehicle, FIG. 2a; for AUC of insulin during OGTT: OGTT Day 30, FIG. 2b. As for the experimental part: (§1) In combination studies, sibutramine is dosed once daily with empagliflozin. Orlistat is dosed twice daily: once at the start of the dark phase (in combination with empagliflozin) and again four hours later. Blood samples are taken after approximately 2 and 4 weeks of dosing after a 4 h fast, with the exception of the combination studies with sibutramine and orlistat where samples are taken after an overnight fast. In the studies where empagliflozin is given with either orlistat or sibutramine, animals undergo an oral glucose (2 g/kg) tolerance test on Day 30 after an overnight fast. Blood samples are taken immediately before and 10, 20, 30, 60 and 120 minutes post glucose administration. At the conclusion of each experiment, carcasses are saved for body composition analysis.
(§2) Blood is collected in EDTA-coated collection tubes (Sarstedt) and immediately spun in a cooled centrifuge and the plasma stored frozen. Subsequently, plasma is assayed for content of one or more of the following: glucose, insulin, leptin, glycerol, and triacylglycerol (TAG) content. Blood (collected in an EDTA tube and frozen immediately) is assayed for HbA1c.
(§3) Commercially available enzyme-linked immunosorbent assays (ELISAs) and colorimetric kits are used to assay glucose (Thermo Electron Corp., PA, USA), insulin (Mercodia, Uppsala, Sweden), glycerol and true triglycerides (Sigma, Mo., USA), and leptin (Assay Designs, MI, USA). HbA1c is assayed by a direct enzymatic assay (Diazyme, CA, USA).
(§4) Plasma data are analysed by a general linear model with treatment as a factor. Where appropriate, data undergo a log transformation prior to analysis. Baseline plasma data and Day 1 body weight are included as covariates. HbA1c data are analysed by a robust regression model using M estimation (Huber weighting, using the default parameter c=1.345). Baseline HbA1c levels and Day 1 body weight are included as covariates. Since no differences are observed between the two and four week changes in plasma parameters, only the final plasma data for each study is detailed.

Assay [2] in a line: Plasma metabolic parameters on Day 30 in DIO rats. Conditions: FIG. 3a; for plasma glucose / plasma insulin: after 30 days of treatment, vs vehicle; for plasma leptin: Day 30, overnight fast. Here is the method:
as §1, §2, §3, §4

A short description of assay [3]: Carcass body composition (FoodScan NIR) of DIO rats at study conclusion. Conditions: FIG. 3b. As for the experimental part:
Carcass composition (body fat, protein and water) is determined using the FoodScan NIR (near infra-red) meat analyser (Foss, UK). Carcasses are milled at the temperature of liquid nitrogen and stored at −20° C. in sealed containers.
Carcass composition data are analysed by robust regression with treatment as factors. Day 1 body weight is included as a covariate.

A short description of assay [4]: Body weight in diet-induced obese (DIO) rats, chronic oral dosing. Particulars: Day 29, FIG. 1. Here is the method: Female Wistar rats (weight range 250-300 g upon arrival) are obtained from Charles River (Margate, Kent) and housed in pairs or threes at a temperature of 21±4° C. and 55±20% humidity. Animals are maintained on a reverse phase light-dark cycle (lights off for 8 h from 09.30-17.30 h) during which time the room is illuminated by red light. Animals have free access to powdered high fat diet (VRF1 plus 20% lard; Special Diet Services (SDS), Witham, UK), ground chocolate (Cadbury's Dairy Milk®), ground peanuts (Big D®, Trigon Snacks Ltd.) and tap water at all times unless specified otherwise. Animals are housed for 20-24 weeks for the induction of obesity. The work reported in this manuscript is performed in accordance with UK law as detailed in the Animals (Scientific Procedures) Act 1986.
Approximately two weeks before the start of the studies, animals are housed singly in polypropylene cages with wire grid floors (so food spillage could be determined). Each cage contains an appropriate amount of paper bedding for warmth, environmental enrichment and to provide an area for animals to get off the wire grid floor. […]
Statistical analysis is performed by a Statistician. Body weight and food and water intake data are assessed by analysis of covariance (ANCOVA) with treatment as a factor, and baseline data as the covariate. […]

`OC[C@H]1O[C@@H](c2ccc(Cl)c(Cc3ccc(O[C@H]4CCOC4)cc3)c2)[C@H](O)[C@@H](O)[C@@H]1O` [empagliflozin, 1-chloro-4-(β-D-glucopyranos-1-yl)-2-[4-((S)-tetrahydrofuran-3-yloxy)-benzyl]-benzene]: in assay [1], the “glucose tolerance (glucose AUC)” value is listed as “improve glucose tolerance”; the “AUC of insulin during OGTT” value was “reduced significantly; also recorded: significant reductions in the glucose and insulin AUC”. Also, the “glucose tolerance (glucose AUC)” value in assay [1] (listed as Empagliflozin) was “significantly improve glucose tolerance”. Moreover, in assay [2], the plasma glucose entry was “significantly reduces plasma glucose” and the plasma insulin result is on record as “significantly reduce plasma insulin; also recorded: either a small effect to reduce plasma insulin or no impact”. The body composition result in assay [3] is “does not significantly affect body composition”.

Take `CCCCCCCCCCC[C@@H](C[C@@H]1OC(=O)[C@H]1CCCCCC)OC(=O)[C@H](CC(C)C)NC=O` [orlistat]: in assay [1], the “glucose tolerance (glucose AUC)” value is recorded as “does not significantly affect glucose tolerance” and the “AUC of insulin during OGTT” value is recorded as “not significantly decreased”. For the same compound, the plasma leptin entry in assay [2] is recorded as “reduce plasma leptin”. In assay [4], the “weight loss compared with vehicle-treated controls” value is given as 2.4%. For the same compound, the “carcass fat / body fat” value in assay [3] was “significantly and selectively reduce carcass fat”.

As for `CC(C)CC(N(C)C)C1(c2ccc(Cl)cc2)CCC1` (stereo not drawn) [sibutramine], in assay [1], the “glucose tolerance (glucose AUC)” value was “significantly improve glucose tolerance”; the “AUC of insulin during OGTT” value was “significant reductions in the glucose and insulin AUC”. In assay [2], the plasma leptin entry is “reduce plasma leptin”, the plasma glucose result is listed as “significantly reduces plasma glucose” and the plasma insulin result was “significantly reduce plasma insulin; also recorded: reduces plasma insulin”. Further, the “weight loss compared with vehicle-treated controls” value in assay [4] is 7.0%. Further, the “carcass fat / body fat” value in assay [3] is “significantly and selectively reduce carcass fat”.
